Values belong to the molecule of their own block, whether it stands above or below them.
Columns and labels:
ALK-5 = ALK-5 (Homo sapiens (Human), UniProt P36897); experiment: LanthaScreen Eu Kinase Binding Assay, ALK-5; settings: for IC50: read-out: Kinase Inhibition: ALK5 IC50
Outline: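 TR-FRET binding assay: compound displaces an ATP-site-directed Alexa Fluor tracer from kinase detected by Eu-labelled anti-tag antibody, lowering FRET. 10-point, 3-fold serial dilutions, 60 min incubation at room temperature, read without development step. Dose-response curves fitted.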

[1] = tested on: phospho-SMAD2 (Ser 465/467) in A549 xenograft; experiment: A549 xenograft study, tumor phospho SMAD2; assay type: in vivo, mouse; settings: for phospho SMAD2 levels in tumor (normalized to GAPDH): 10, 50, 75, 100 mg/Kg; for inhibition at 10 mg/kg / inhibition at 50 mg/kg / inhibition at 75 mg/kg / inhibition at 100 mg/kg: Mus musculus, A549, oral gavage, 3 hours after administration, read-out: Percent of p-SMAD2 inhibition compared to vehicle control
Description: To test compounds for in vivo on-target activity (ALK5/TGF-βR1 inhibition), a study was completed using an A549 murine xenograft model. This model was utilized since an ALK5 inhibitor is expected to reduce the amount of the key TGF-β signaling molecule phosphoSMAD2 in the A549 xenograft cells. The TGF-β mediated phosphorylation in A549 cells takes place at amino acid residue four hundred and sixty-five and four hundred and sixty-seven (both are serine residues).
Eight-week old, female athymic nude mice (Charles River) were injected with approximately four million A549 cells (ATCC, CCL-185). The cells employed were harvested and resuspended in plain RPMI media (no phenol red added) and matrigel (Fisher Scientific) at a one to one ratio. Injection comprised a two-hundred microliter sample injected into the right hind flank of each mouse. Resulting tumors were measured every three days by caliper and as tumors reached an average of one hundred and thirty millimeters cubed, mice were randomized in groups of three.
All compounds were resuspended in 1-Methyl-2-pyrrolidinone (10%) plus 20% Solutol in water (90%). Galunisertib was included as a positive control and given at seventy-five milligram per kilogram to three mice. The drug suspensions were sonicated for fifteen minutes to generate a fine particle suspension before being administered to a subject. Mice were dosed (per oral gavage) at dose levels of one hundred mg/Kg, seventy-five mg/Kg, fifty mg/Kg and ten mg/Kg with three mice in each group. A vehicle control group with three mice was used to establish the baseline level of phospho SMAD2 in the tumor xenograft. Three hours after drug administration, tumors were harvested and stored at negative eighty degrees Celsius until further processing. The phospho SMAD2 levels were determined using the BioPlex Pro anti phospho-SMAD2 (Ser 465/467) beads from Biorad and this signal was normalized using GAPDH levels from each sample (Milliplex MAP GAPDH beads, Sigma/Millipore). Tumors were processed according to kit instructions and beads analyzed using the MagPix instrument by Luminex.

[2] = tested on: p-SMAD2 (Ser465/Ser467) in A549 xenograft; experiment: Longitudinal PK/PD analysis of p-SMAD2 in A549 xenograft mouse model (PD); assay type: in vivo; settings: 75 mg/kg single oral dose; for inhibition at 75 mg/kg: Mus musculus, A549, 4 hours post drug administration, read-out: inhibition of p-SMAD2 compared to the vehicle group
Description: In this study, p-SMAD2 (Ser465/Ser467) and a housekeeping gene (GAPDH) were measured at six timepoints from zero (established using vehicle-treated animals) up to twenty-four hours post dose for a single drug dose of seventy-five milligrams per kilogram per subject (three subjects per dosing group).
For this study, xenografts were prepared and implanted in mice as follows. At five weeks of age, female athymic nude mice (purchased from Charles River) were injected with approximately 3.2 million A549 cells (ATCC, CCL-185). Cells were harvested and resuspended in plain RPMI media (no phenol red added) and Matrigel (Corning 356237) at a one-to-one ratio, and two hundred-microliters of the cell suspension were injected into the right hind flank of each mouse. Tumors were measured every three days by caliper, and as tumors reached an average of ninety millimeters cubed, mice were randomized in groups of three. Each of the test compounds (Ex-10 and Ex-11) was resuspended in 1-methyl-2-pyrrolidinone (Sigma, 494496) (10%) plus 20% Solutol (Sigma 42966) in water (90%). The drug suspensions were sonicated for fifteen minutes to generate a fine particle suspension before being given to the test subjects. Subjects were dosed (per oral gavage) with the suspension. A vehicle control group with three mice was used to establish the baseline and timepoint zero of phospho-SMAD-2 in the tumor xenograft. The test compounds were administered to the respective subject groups at seventy-five milligrams per kilogram. Samples were obtained post administration of test compounds at 20 minutes, one hour, two hours, four hours, and twenty-four hours. Tumors were harvested, snap frozen and stored at negative eighty degrees Celsius until further processing. Plasma was collected from all animals by collecting whole blood via cardiac puncture, followed by centrifugation in tubes containing EDTA (BD, microtainer tubes, 365974). A group of three mice receiving vehicle only served as the zero timepoint for both drug groups. The phospho-SMAD-2 levels were determined using the Bio-Plex Pro™ Phospho-Smad2 (Ser465/Ser467) Set (BioRad 171V50019M). The phospho-SMAD-2 levels were normalized to GAPDH (MILLIPLEX MAP GAPDH Total Magnetic Bead MAPmate™, Millipore 46-667MAG) levels from each sample. All analytes were analyzed in a multiplex fashion with the Bio-Plex Pro Cell Signaling Reagent Kit (BioRad 171304006M). Frozen tumor samples (fifteen to thirty milligrams) were lysed in 100 μl lysis buffer, processed in a bead mill tube, and centrifuged. The resulting lysate was used at 1:50 dilution for the assay according to the manufacturer's instructions. Bead suspension was analyzed using the Luminex system (MAGPIX).

ALK-5, sequence (P36897 34-503): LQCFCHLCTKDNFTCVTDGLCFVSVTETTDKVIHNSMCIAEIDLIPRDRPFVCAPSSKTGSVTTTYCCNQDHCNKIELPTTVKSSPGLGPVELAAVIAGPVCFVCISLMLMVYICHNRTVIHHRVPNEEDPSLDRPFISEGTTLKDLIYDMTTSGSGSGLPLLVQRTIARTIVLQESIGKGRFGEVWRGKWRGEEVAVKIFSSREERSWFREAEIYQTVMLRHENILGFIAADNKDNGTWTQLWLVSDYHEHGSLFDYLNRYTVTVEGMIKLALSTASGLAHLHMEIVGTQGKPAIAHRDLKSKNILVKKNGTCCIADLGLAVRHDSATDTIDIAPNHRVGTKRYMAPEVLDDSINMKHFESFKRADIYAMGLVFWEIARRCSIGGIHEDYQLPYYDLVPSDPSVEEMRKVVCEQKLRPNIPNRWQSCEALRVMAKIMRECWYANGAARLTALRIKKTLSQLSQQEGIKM

Kinase Selectivity: ALK2 IC50/ ALK5 IC50 (ALK-5): (++) (10<ALK2/ALK5<100=[++])
IC50 (ALK-5): < 10 nM
SMILES: Cc1cccc2c(Nc3ccnc(Nc4ccc(N5CCOCC5)cc4)n3)cnnc12 [EX-10, N4-(8-methylcinnolin-4-yl)-N2-(4-morpholino-phenyl)-pyrimidine-2,4-diamine]
phospho SMAD2 levels in tumor (normalized to GAPDH) [1]: reduced the phopho SMAD2 levels (p-SMAD2) in a dose dependent fashion
inhibition at 10 mg/kg [1]: 33.5%
inhibition at 50 mg/kg [1]: 78.3%
inhibition at 75 mg/kg ([1]; 75 mg/Kg): 74.8%
inhibition at 100 mg/kg [1]: 84.8%
p-SMAD2 levels at 24 hours post drug administration [2]: rose back to baseline levels
inhibition at 75 mg/kg [2]: 74.3%

SMILES: Cc1cccc2c(Nc3ccnc(Nc4cccc(N5CCOCC5)c4)n3)cnnc12 [EX-11, N4-(8-methylcinnolin-4-yl)-N2-(3-morpholinophenyl)pyrimidine-2,4-diamine]
Kinase Selectivity: ALK2 IC50/ ALK5 IC50 (ALK-5): (++) (10<ALK2/ALK5<100=[++])
IC50 (ALK-5): < 10 nM
observed level of p-SMAD2 as percent of vehicle-only group ([1]; 75 mg/Kg): 7.5%
phospho SMAD2 levels in tumor (normalized to GAPDH) [1]: reduced the phopho SMAD2 levels (p-SMAD2) in a dose dependent fashion
inhibition at 10 mg/kg [1]: 32.6%
inhibition at 50 mg/kg [1]: 87.6%
inhibition at 75 mg/kg ([1]; 75 mg/Kg): 92.5%
inhibition at 100 mg/kg [1]: 90.1%
p-SMAD2 levels at 24 hours post drug administration [2]: rose back to baseline levels
inhibition at 75 mg/kg [2]: 92.3%

— US11746103B2, “ALK-5 inhibitors and uses thereof” (Sumitomo Pharma Oncology, Inc., priority 2020, dated 2023)
